Experiments:
Format in all cases: biochemical
[1] = system: superoxide, formed in a xanthine-xanthine oxidase system; test: Active oxygen eliminating activity of powdery carrot compositions with saccharides before and after storage, nitro blue tetrazolium (NBT) test (Experiment 3)
Protocol: (§1) Fresh raw carrots were disrupted by a mixer, and saccharides were respectively added to the mixture and dissolved therein to give a concentration of 10%, d.s.b. The solutions were dried under a reduced pressure at 40° C. for two days, dried in vacuo at the same temperature for 24 hours, and pulverized by a mixer into powdery carrot compositions. […] An about 100 g each of the compositions was placed and sealed in a 500-ml polystyrene container, and stored at 40° C. for seven days. The active oxygen eliminating activities of the compositions before and after storage were compared with each other. The active oxygen eliminating activity was assayed by the nitro blue tetrazolium (NBT) test by Toshio IMANARI et al. in Igakuno Ayumi, Vol. 101, pp. 496-497 (1977), and the level of superoxide, formed in a xanthine-xanthine oxidase system, was assayed by quantifying calorimetrically the content of formazan formed by reducing NBT. As a control, refined water was used as a test solution. One unit activity of active oxygen eliminating activity was defined as that inhibited 50% formazan formation as compared with the control. […] Thus cyclotetrasaccharide is preferable as an effective ingredient for a reduction inhibitory agent for active oxygen eliminating activity.

[2] = system: superoxide, formed in a hypoxanthine-xanthine oxidase system; test: Active oxygen eliminating activity of powdery carrot compositions with saccharides before and after storage, electron spin resonance (ESR) test (Experiment 4)
Protocol: Fresh raw carrots were disrupted as Experiment 3, and saccharides were respectively added to the mixture and dissolved therein to give a concentration of 10%, d.s.b. The solutions were dried under a reduced pressure at 40° C. for one day, dried in vacuo at the same temperature for 17 hours, and pulverized by a mixer into powdery carrot compositions. […] About 100 g each of the compositions was placed and sealed in a 500-ml polystyrene container, and stored at 40° C. for seven or fourteen days. The active oxygen eliminating activities of the compositions before and after storage were compared with each other. The active oxygen eliminating activity was assayed by the electron spin resonance (ESR) test by Toshihiko OZAWA in BUNSEKI, Vol. 2, pp. 68-74 (2000), and the level of superoxide, formed in a hypoxanthine-xanthine oxidase system, was assayed by the spin-trapping with 5,5-dimethyl-1-pyrroline-N-oxide in ESR.

[3] = system: superoxide, formed in a xanthine-xanthine oxidase system; test: Influence of cyclotetrasaccharide concentration on active oxygen eliminating activity of powdery carrot compositions, NBT test (Experiment 5); conditions: for Activity (unit/g) After storage / Percentage of residual activity (%): 40° C. seven days
Protocol: as §1
Similarly as in Experiment 3, cyclotetrasaccharide was respectively mixed with and dissolved in disrupted carrots to give concentrations of 0-20%, d.s.b. The resulting mixtures were dried in vacuo at 40° C. for 24 hours, and pulverized into powdery carrot compositions. Similarly as in Experiment 3, each powdery composition was placed and sealed in a polystyrene container, and stored at 40° C. for seven days for evaluating the reduction inhibitory activity for active oxygen activity. The active oxygen eliminating activity of one gram each of powdery compositions before and after storage was measured by the method in Experiment 3.

[4] = system: superoxide, formed in a xanthine-xanthine oxidase system; test: Active oxygen eliminating activity of powdery vegetable compositions with or without cyclotetrasaccharide before and after storage (Experiment 6); conditions: carrot, onion, Japanese radish, cabbage, spinach, cucumber, pumpkin; in words
active oxygen = test: Active oxygen eliminating activity of superoxide dismutase and antioxidants in cyclotetrasaccharide solution or water before and after storage (Experiment 7); conditions: 30% (w/v) cyclotetrasaccharide solution; superoxide dismutase, α-glucosyl hesperidin, α-glucosyl rutin, gallic acid, catechin; in words
Protocol: In one milliliter of 30% (w/v) cyclotetrasaccharide solution, which is prepared by using cyclotetrasaccharide obtained in Experiment 2, was dissolved five micrograms (μ g) of superoxide dismutase from a horseradish commercialized by Sigma Chemical Co., St. Louis, USA, 10 mg of α-glucosyl hesperidin commercialized by Hayashibara Biochemical Laboratories, Inc., Okayama Japan, 10 mg of α-glucosyl rutin commercialized by Hayashibara Biochemical Laboratories, Inc., Okayama, Japan, 250 μg of gallic acid commercialized by Wako Pure Chemical Industries, Ltd., Tokyo, Japan, or 50 μg of catechin to obtain a liquid composition. Each of the compositions was placed in a glass test tube, sealed with a rubber cap, and stored under a dark condition. As a control, water was used in place of the cyclotetrasaccharide solution.

[5] = powdery carrot composition, saccharide added at 10% d.s.b., stored at 40° C. for seven days
[6] = 0.1% cyclotetrasaccharide added to carrot (content 1.0% d.s.b.)
[7] = 0.5% cyclotetrasaccharide added to carrot (content 4.9% d.s.b.)
[8] = 1.0% cyclotetrasaccharide added to carrot (content 9.4% d.s.b.)
[9] = 2.5% cyclotetrasaccharide added to carrot (content 20.7% d.s.b.)
[10] = 5.0% cyclotetrasaccharide added to carrot (content 34.2% d.s.b.)
[11] = 10.0% cyclotetrasaccharide added to carrot (content 51.1% d.s.b.)
[12] = 20.0% cyclotetrasaccharide added to carrot (content 67.6% d.s.b.)

Activity (unit/g) After storage [1, 5]: 390 unit/g
Percentage of residual activity (%) [1, 5]: 66%
Activity (unit/g) Before storage ([1]; powdery carrot composition, saccharide added to disrupted carrots at 10% d.s.b., before storage): 590 unit/g
residual percentage / reduction inhibitory activity for active oxygen eliminating activity among the saccharides tested ([1]; powdery carrot compositions, 40° C. seven days, in words): highest residual percentage
Activity (unit/g) Before storage ([2]; powdery carrot composition, saccharide added at 10% d.s.b., before storage): 186 unit/g
Activity (unit/g) After two weeks storage ([2]; powdery carrot composition, stored at 40° C. for fourteen days): 66 unit/g
percentage of residual activity After two weeks storage ([2]; powdery carrot composition, stored at 40° C. for fourteen days, numerals in parentheses): 36%
Activity (unit/g) After one week storage ([2]; powdery carrot composition, stored at 40° C. for seven days): 88 unit/g
percentage of residual activity After one week storage ([2]; powdery carrot composition, stored at 40° C. for seven days, numerals in parentheses): 47%
residual percentage for active oxygen eliminating activity among the saccharides tested ([2]; powdery carrot compositions, in words): highest residual percentage
Activity (unit/g) After storage [3, 6]: 390 unit/g
Percentage of residual activity (%) [3, 6]: 42%
Activity (unit/g) Before storage [3, 6]: 930 unit/g
Activity (unit/g) After storage [3, 7]: 470 unit/g
Percentage of residual activity (%) [3, 7]: 57%
Activity (unit/g) Before storage [3, 7]: 820 unit/g
Activity (unit/g) After storage [3, 8]: 450 unit/g
Percentage of residual activity (%) [3, 8]: 61%
Activity (unit/g) Before storage [3, 8]: 740 unit/g
Activity (unit/g) After storage [3, 9]: 460 unit/g
Percentage of residual activity (%) [3, 9]: 66%
Activity (unit/g) Before storage [3, 9]: 700 unit/g
Activity (unit/g) After storage [3, 10]: 340 unit/g
Percentage of residual activity (%) [3, 10]: 62%
Activity (unit/g) Before storage [3, 10]: 550 unit/g
Activity (unit/g) After storage [3, 11]: 290 unit/g
Percentage of residual activity (%) [3, 11]: 69%
Activity (unit/g) Before storage [3, 11]: 420 unit/g
Activity (unit/g) After storage [3, 12]: 280 unit/g
Percentage of residual activity (%) [3, 12]: 64%
Activity (unit/g) Before storage [3, 12]: 390 unit/g
reduction inhibitory activity for active oxygen eliminating activity by incorporating cyclotetrasaccharide [4]: observed in many vegetables
Structure (SMILES): OCC1OC2OCC3O[C@H](O[C@H]4C(O)C(CO)OC(OCC5O[C@H](O[C@@H](C1O)C2O)C(O)C(O)[C@@H]5O)C4O)C(O)C(O)[C@@H]3O (stereo partly drawn) [Cyclotetrasaccharide, cyclo{→6)-α-D-glucopyranosyl-(1→3)-α-D-glucopyranosyl-(1→6)-α-D-glucopyranosyl-(1→3)-α-D-glucopyranosyl-(1→}]
reducing inhibitory activity for active oxygen eliminating activity of plant antioxidants (active oxygen): effective reducing inhibitory activity

— patent US20070218189A1, “Reduction inhibitory agent for active oxygen eliminating-activity” (KABUSHIKI KAISHA HAYASHIBARA SEIBUTSU KAGAKU KENYUJO, priority 2001, published 2007)
